A value given as a limit tells only on which side of the number the result lay.

The results in this text go back to ChEMBL document CHEMBL4251714, “Isolation, Characterization, and Structure-Activity Relationship Analysis of Abietane Diterpenoids from Callicarpa bodinieri as Spleen Tyrosine Kinase Inhibitors” (J Nat Prod, 2018).

Series [1] is described as follows: Inhibition of PKA (unknown origin) by mobility shift assay. The arrangement: species or system Homo sapiens.
For series [2], the target named is T1, Tyrosine-protein kinase JAK3 (Homo sapiens, UniProt P52333).
T1 sequence (P52333 whole entry): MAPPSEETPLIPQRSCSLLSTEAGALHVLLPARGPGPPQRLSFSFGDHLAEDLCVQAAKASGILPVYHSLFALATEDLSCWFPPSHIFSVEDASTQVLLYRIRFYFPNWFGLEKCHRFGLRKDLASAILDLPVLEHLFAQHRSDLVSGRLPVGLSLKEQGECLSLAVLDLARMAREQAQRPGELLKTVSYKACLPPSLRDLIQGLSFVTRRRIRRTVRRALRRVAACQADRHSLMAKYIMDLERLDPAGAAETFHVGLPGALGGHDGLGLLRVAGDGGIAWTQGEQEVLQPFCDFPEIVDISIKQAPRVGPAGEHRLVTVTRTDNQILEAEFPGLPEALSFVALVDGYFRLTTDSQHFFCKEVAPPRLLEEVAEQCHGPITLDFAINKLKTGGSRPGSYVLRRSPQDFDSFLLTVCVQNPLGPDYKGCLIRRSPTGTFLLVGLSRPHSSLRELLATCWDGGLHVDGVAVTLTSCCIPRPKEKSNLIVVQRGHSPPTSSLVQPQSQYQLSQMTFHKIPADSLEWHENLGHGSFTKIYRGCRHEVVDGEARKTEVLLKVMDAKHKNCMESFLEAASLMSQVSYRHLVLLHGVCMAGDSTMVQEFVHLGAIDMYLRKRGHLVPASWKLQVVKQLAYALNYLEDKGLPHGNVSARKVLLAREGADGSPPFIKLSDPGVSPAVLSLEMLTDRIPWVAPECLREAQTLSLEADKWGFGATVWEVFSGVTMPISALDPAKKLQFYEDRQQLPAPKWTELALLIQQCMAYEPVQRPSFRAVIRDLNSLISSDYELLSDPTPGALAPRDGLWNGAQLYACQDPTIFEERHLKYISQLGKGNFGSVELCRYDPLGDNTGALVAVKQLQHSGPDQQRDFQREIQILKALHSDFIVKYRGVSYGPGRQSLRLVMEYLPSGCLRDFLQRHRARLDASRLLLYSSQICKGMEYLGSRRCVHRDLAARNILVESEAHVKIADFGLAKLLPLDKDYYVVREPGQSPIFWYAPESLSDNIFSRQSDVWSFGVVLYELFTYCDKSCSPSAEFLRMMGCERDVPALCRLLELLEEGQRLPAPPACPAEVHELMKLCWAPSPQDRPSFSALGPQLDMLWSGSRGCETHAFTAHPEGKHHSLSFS
As to the kind of experiment: Inhibition of JAK3 (unknown origin) by mobility shift assay.

The target in series [3] is Serine/threonine-protein kinase B-raf (Homo sapiens) (UniProt P15056). As to the kind of experiment: Inhibition of BRAF (unknown origin) at 50 ug/ml by Lanthascreen assay relative to control. On the technique in general: In TR-FRET formats the signal depends on donor and acceptor labels being close together.
For series [4], the target named is Protein kinase C theta (Homo sapiens) (UniProt Q04759). As to the kind of experiment: Inhibition of PKCtheta (unknown origin) at 50 ug/ml by mobility shift assay relative to control.
Series [5] has as its target T2, Tyrosine-protein kinase ZAP-70 (Homo sapiens) (UniProt P43403).
T2 sequence (whole entry): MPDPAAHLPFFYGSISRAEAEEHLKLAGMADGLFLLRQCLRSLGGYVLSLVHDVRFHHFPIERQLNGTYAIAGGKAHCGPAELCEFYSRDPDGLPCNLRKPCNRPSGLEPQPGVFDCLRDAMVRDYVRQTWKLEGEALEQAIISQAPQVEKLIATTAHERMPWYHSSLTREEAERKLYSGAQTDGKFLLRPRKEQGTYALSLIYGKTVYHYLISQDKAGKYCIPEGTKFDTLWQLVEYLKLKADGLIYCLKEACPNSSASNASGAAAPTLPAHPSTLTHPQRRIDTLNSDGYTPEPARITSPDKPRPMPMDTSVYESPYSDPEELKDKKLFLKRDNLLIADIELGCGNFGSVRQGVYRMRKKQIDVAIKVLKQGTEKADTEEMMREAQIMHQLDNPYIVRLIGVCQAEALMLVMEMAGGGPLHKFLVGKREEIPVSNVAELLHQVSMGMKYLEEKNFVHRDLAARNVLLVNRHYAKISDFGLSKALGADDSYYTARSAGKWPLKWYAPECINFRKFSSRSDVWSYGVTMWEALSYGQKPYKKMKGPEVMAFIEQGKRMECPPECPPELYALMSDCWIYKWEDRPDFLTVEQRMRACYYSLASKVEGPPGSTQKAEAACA
As to the kind of experiment: Inhibition of ZAP70 (unknown origin) at 50 ug/ml by mobility shift assay relative to control.

Series [6] addresses ALK tyrosine kinase receptor (Homo sapiens) (UniProt Q9UM73). In words: Inhibition of ALK (unknown origin) at 50 ug/ml by mobility shift assay relative to control.
For series [7], the target named is Proto-oncogene tyrosine-protein kinase Src (Homo sapiens) (UniProt P12931). As to the kind of experiment: Inhibition of SRC (unknown origin) at 50 ug/ml by mobility shift assay relative to control.
Series [8] addresses Serine/threonine-protein kinase pim-1 (Homo sapiens) (UniProt P11309). As to the kind of experiment: Inhibition of PIM1 (unknown origin) at 50 ug/ml by mobility shift assay relative to control.
Series [9] deals with Tyrosine-protein kinase SYK (Homo sapiens) (UniProt P43405). As to the kind of experiment: Inhibition of SYK (unknown origin) at 50 ug/ml by mobility shift assay relative to control.
Series [10] addresses RAC-alpha serine/threonine-protein kinase (Homo sapiens) (UniProt P31749). In words: Inhibition of AKT1 (unknown origin) at 50 ug/ml by mobility shift assay relative to control.
For series [11], the target named is Glycogen synthase kinase-3 beta (Homo sapiens) (UniProt P49841). As to the kind of experiment: Inhibition of GSK3b (unknown origin) at 50 ug/ml by mobility shift assay relative to control.
Series [12] concerns the target T3, 3-phosphoinositide-dependent protein kinase 1 (Homo sapiens) (UniProt O15530).
T3 sequence (whole entry): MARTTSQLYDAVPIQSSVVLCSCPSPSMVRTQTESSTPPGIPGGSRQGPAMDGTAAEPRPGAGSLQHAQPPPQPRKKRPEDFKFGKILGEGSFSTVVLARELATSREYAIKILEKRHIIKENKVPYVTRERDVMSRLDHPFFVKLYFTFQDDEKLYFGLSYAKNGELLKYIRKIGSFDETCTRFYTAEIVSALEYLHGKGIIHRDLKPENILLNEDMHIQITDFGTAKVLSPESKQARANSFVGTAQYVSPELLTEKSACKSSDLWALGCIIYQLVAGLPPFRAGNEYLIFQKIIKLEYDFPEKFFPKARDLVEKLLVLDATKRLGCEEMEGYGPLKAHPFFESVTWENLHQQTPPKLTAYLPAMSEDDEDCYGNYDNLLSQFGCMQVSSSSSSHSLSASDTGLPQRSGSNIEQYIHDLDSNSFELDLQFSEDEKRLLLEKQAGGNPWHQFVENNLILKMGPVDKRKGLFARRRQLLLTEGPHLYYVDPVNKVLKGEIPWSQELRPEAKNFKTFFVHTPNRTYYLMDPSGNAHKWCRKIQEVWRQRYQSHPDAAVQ
As to the kind of experiment: Inhibition of PDK1 (unknown origin) at 50 ug/ml by mobility shift assay relative to control.

In series [13] the target is T4, JAK3 (Tyrosine-protein kinase JAK3) (Homo sapiens, UniProt P52333).
T4 sequence (P52333 whole entry): T1 sequence (P52333 whole entry)
In words: Inhibition of JAK3 (unknown origin) at 50 ug/ml by mobility shift assay relative to control. The following applies: JAK3 kinase (single protein, unknown origin).

The next series is filed under the species Homo sapiens. In words: Inhibition of PKA (unknown origin) at 50 ug/ml by mobility shift assay relative to control.
In series [14] the target is Focal adhesion kinase 1 (Homo sapiens) (UniProt Q05397). In words: Inhibition of FAK (unknown origin) at 50 ug/ml by Lanthascreen assay relative to control.
Focal adhesion kinase 1 (Homo sapiens), sequence (Q05397 2-1052 limits assumed): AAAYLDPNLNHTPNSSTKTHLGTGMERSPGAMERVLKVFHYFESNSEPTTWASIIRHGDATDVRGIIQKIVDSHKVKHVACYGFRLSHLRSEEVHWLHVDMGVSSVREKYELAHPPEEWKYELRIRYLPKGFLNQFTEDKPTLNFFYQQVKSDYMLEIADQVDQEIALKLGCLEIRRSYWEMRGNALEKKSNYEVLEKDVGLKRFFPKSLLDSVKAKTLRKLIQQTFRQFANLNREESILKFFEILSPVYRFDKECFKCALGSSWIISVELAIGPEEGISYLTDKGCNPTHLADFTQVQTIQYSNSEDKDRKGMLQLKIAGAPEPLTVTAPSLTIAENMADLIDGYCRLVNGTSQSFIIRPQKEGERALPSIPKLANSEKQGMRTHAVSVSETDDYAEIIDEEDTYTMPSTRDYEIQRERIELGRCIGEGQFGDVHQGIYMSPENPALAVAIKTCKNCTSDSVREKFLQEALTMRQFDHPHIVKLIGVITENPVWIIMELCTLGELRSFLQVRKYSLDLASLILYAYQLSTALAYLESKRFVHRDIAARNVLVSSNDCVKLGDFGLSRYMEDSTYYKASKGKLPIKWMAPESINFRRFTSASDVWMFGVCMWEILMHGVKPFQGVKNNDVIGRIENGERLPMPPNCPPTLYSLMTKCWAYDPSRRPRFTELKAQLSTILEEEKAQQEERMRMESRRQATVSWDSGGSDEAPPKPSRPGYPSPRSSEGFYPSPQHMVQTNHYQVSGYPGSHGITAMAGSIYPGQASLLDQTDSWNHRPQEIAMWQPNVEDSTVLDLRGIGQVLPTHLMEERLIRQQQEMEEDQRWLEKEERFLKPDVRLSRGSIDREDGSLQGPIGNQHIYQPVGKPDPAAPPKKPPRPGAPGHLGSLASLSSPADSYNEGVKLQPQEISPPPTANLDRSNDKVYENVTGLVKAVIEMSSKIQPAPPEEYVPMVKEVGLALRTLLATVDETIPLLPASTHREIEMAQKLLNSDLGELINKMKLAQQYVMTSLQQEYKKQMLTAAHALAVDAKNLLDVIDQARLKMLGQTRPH

Protein kinase C theta (Homo sapiens), sequence (Q04759 whole entry, looked up): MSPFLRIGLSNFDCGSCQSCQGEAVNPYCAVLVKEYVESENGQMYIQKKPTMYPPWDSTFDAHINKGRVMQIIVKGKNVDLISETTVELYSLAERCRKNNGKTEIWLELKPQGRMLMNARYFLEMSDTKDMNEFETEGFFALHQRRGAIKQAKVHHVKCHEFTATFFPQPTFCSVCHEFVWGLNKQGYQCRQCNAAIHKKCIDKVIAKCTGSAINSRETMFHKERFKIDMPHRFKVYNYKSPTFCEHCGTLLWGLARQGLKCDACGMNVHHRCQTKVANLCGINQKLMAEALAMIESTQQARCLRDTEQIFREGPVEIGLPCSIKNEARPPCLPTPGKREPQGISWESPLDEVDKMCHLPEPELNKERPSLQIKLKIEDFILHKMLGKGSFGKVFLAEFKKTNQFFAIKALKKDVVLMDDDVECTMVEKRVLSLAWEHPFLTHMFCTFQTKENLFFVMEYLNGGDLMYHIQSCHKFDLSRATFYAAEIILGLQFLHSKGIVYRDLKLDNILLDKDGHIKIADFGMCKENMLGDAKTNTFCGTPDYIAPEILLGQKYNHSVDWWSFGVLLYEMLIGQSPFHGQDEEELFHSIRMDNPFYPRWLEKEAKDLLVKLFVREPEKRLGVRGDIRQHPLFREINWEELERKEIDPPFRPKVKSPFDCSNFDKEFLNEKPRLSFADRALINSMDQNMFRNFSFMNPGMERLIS
ALK tyrosine kinase receptor (Homo sapiens), sequence (Q9UM73 19-1620 limits assumed): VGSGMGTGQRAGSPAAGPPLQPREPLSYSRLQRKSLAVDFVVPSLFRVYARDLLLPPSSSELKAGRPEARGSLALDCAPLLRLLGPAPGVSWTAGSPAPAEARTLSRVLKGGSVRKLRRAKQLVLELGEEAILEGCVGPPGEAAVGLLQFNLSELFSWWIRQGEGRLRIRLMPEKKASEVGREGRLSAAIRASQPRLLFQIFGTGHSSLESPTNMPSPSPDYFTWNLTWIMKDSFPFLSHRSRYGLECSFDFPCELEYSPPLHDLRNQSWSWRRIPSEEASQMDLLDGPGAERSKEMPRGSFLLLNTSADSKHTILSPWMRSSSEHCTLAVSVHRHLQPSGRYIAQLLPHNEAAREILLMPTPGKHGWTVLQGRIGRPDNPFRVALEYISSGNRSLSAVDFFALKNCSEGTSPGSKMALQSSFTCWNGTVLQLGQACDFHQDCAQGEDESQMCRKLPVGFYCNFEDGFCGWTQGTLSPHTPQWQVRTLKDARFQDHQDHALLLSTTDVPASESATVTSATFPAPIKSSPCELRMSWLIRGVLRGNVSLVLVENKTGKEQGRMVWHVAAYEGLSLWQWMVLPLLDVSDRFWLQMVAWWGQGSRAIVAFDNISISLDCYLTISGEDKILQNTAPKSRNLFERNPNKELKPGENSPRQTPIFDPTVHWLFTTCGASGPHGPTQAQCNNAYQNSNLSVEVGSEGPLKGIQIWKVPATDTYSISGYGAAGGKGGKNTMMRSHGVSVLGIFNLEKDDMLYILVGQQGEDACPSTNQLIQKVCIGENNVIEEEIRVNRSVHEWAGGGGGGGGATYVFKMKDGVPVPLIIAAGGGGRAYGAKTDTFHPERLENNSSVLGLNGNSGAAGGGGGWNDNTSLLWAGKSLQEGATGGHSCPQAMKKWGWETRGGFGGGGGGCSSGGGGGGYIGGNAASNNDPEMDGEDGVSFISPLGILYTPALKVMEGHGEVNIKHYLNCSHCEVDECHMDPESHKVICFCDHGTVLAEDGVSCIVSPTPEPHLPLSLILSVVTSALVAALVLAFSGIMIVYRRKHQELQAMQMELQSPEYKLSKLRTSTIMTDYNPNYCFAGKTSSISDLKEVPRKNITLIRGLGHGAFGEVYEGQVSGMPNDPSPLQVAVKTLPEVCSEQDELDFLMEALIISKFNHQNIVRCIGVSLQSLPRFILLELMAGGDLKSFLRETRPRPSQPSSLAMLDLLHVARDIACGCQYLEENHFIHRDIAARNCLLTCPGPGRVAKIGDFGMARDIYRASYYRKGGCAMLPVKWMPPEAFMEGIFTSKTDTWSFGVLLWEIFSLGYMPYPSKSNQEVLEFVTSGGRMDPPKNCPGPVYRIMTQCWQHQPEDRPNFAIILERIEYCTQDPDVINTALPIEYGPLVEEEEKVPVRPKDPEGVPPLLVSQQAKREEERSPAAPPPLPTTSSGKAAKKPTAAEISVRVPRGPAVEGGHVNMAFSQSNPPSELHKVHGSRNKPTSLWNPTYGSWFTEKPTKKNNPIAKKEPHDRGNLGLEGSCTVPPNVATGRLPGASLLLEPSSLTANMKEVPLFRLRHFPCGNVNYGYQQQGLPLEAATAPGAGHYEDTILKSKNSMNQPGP
Glycogen synthase kinase-3 beta (Homo sapiens), sequence (P49841 whole entry, looked up): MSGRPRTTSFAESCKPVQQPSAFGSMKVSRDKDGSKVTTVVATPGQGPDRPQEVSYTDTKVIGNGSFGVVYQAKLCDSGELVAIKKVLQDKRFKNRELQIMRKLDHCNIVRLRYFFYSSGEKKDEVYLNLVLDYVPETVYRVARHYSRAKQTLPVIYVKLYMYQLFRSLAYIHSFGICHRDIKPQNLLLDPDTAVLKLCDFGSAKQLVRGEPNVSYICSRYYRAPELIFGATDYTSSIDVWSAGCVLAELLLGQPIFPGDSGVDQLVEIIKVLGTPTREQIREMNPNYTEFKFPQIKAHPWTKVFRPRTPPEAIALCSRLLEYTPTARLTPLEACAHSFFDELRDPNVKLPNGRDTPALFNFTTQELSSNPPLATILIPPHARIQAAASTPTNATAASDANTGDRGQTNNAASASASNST
Serine/threonine-protein kinase pim-1 (Homo sapiens), sequence (P11309 whole entry, looked up): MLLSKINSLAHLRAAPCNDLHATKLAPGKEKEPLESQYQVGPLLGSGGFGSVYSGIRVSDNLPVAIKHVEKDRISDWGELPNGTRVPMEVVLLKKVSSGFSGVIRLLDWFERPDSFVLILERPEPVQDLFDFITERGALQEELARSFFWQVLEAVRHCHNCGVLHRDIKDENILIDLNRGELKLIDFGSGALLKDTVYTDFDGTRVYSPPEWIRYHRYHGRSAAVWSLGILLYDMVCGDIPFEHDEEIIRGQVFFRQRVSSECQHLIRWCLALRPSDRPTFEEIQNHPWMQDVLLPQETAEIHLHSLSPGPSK
Proto-oncogene tyrosine-protein kinase Src (Homo sapiens), sequence (P12931 2-536 limits assumed): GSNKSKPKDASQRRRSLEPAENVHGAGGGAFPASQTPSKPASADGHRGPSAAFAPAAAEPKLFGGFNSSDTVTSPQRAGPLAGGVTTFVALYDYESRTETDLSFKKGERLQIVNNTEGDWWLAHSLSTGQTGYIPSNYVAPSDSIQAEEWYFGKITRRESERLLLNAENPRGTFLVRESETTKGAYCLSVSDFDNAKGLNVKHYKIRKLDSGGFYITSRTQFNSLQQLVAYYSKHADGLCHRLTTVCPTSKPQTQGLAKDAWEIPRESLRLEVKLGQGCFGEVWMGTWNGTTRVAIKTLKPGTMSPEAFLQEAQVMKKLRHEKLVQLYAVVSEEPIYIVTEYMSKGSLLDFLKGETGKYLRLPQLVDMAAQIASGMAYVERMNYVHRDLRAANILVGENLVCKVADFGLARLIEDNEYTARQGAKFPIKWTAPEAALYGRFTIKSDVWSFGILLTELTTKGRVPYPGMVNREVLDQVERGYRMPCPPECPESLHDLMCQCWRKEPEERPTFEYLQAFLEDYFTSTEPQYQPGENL

For the compound `CN[C@@H]1C[C@H]2O[C@@](C)([C@@H]1OC)n1c3ccccc3c3c4c(c5c6ccccc6n2c5c31)C(=O)NC4`, in series [1], the IC50 – broadly, the concentration needed to halve the response being measured – was determined as 0.0022 µM.

Consider `C=C(C)c1ccc2c(c1)CC[C@H]1[C@@](CO)(C(=O)O)CCC[C@]21C`, for which the IC50 in [2] is over 100 µM.

For `CC(C)c1ccc2c(c1)CC[C@H]1[C@@](CO)(C(=O)O)CCC[C@]21C`, the IC50 in series [2] was over 100 µM.

Regarding `CC(=O)c1ccc2c(c1)CC[C@H]1[C@@](CO)(C(=O)O)CCC[C@]21C`, the IC50 in series [2] is over 100 µM.

Consider `CC(C)(O)c1ccc2c(c1)CC[C@H]1[C@](C)(C(=O)O)CCC[C@]21C`, for which the IC50 in series [2] was over 100 µM.

Regarding `CC(C)c1cc2c(cc1O)[C@@]1(C)CCC[C@@](C)(C=O)[C@@H]1CC2` [18-OXOFERRUGINOL], in series [2], the IC50 is over 100 µM.

On to `CC(C)c1ccc2c(c1)CC[C@H]1[C@](C)(C(=O)O)CCC[C@]21C` [DEHYDROABIETIC ACID], for which the inhibition (in general, the relative decrease from the control value, in per cent) in series [3] was -7.3%; in series [4] it was 0.9%; in series [5], 52.5%; in series [6], 17.6%; in series [7], 61.2%; in series [8], 10.7%. For the same compound, the inhibition was 81% in series [9]; 53.6% in [10]; 20.1% in series [11]; 46.1% in series [12]; 69.9% in the series filed under Homo sapiens; 67.1% in series [14]. Besides, the IC50 in series [2] is over 100 µM. Also, the inhibition at 50 ug/ml in [13] was 74.9%.
